Results published in the supplement of paper PMC10307832.

What was measured:
Test in all cases: relative viability (nuclei count vs DMSO), 5 days (fraction); higher = more cells survive
Sorafenib + Bortezomib = compound: CNC(=O)c1cc(Oc2ccc(NC(=O)Nc3ccc(Cl)c(C(F)(F)F)c3)cc2)ccn1 [Sorafenib] + CC(C)C[C@H](NC(=O)[C@H](Cc1ccccc1)NC(=O)c1cnccn1)B(O)O [Bortezomib] (partner 0.002 µM)
Outline: (§1)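 Lung cancer cell lines were pin-tool dosed in 1536-well plates on the day after seeding, with either a lone drug or a fixed anchor-drug dose plus five library-drug doses (not always all listed) in √10 steps. Nuclei were counted on 4× images after 5 days. Relative viability is the ratio of treated-well to vehicle-well nuclei counts, with each value a median of duplicate plates.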

Sorafenib + Palbociclib = compound: CNC(=O)c1cc(Oc2ccc(NC(=O)Nc3ccc(Cl)c(C(F)(F)F)c3)cc2)ccn1 [Sorafenib] + CC(=O)c1c(C)c2cnc(Nc3ccc(N4CCNCC4)cn3)nc2n(C2CCCC2)c1=O [Palbociclib] (partner 0.5 µM)
Outline: as §1

Sorafenib + Pictilisib = compound: CNC(=O)c1cc(Oc2ccc(NC(=O)Nc3ccc(Cl)c(C(F)(F)F)c3)cc2)ccn1 [Sorafenib] + CS(=O)(=O)N1CCN(Cc2cc3nc(-c4cccc5[nH]ncc45)nc(N4CCOCC4)c3s2)CC1 [Pictilisib] (partner 1 µM)
Outline: as §1

Sorafenib + Pemetrexed = compound: CNC(=O)c1cc(Oc2ccc(NC(=O)Nc3ccc(Cl)c(C(F)(F)F)c3)cc2)ccn1 [Sorafenib] + Nc1nc2[nH]cc(CCc3ccc(C(=O)N[C@@H](CCC(=O)O)C(=O)O)cc3)c2c(=O)[nH]1 [Pemetrexed] (partner 0.2 µM)
Outline: as §1

Sorafenib + Olaparib = compound: CNC(=O)c1cc(Oc2ccc(NC(=O)Nc3ccc(Cl)c(C(F)(F)F)c3)cc2)ccn1 [Sorafenib] + O=C(c1cc(Cc2n[nH]c(=O)c3ccccc23)ccc1F)N1CCN(C(=O)C2CC2)CC1 [Olaparib] (partner 8 µM)
Outline: as §1

Cell Line	relative viability (Sorafenib + Bortezomib; first compound 0.08 µM)	relative viability (Sorafenib + Bortezomib; first compound 0.253 µM)	relative viability (Sorafenib + Bortezomib; first compound 2.53 µM)	relative viability (Sorafenib + Bortezomib; first compound 8 µM)	relative viability (Sorafenib + Palbociclib; first compound 0.08 µM)	relative viability (Sorafenib + Palbociclib; first compound 0.253 µM)	relative viability (Sorafenib + Palbociclib; first compound 2.53 µM)	relative viability (Sorafenib + Palbociclib; first compound 8 µM)	relative viability (Sorafenib + Pictilisib; first compound 0.08 µM)	relative viability (Sorafenib + Pictilisib; first compound 0.253 µM)	relative viability (Sorafenib + Pictilisib; first compound 2.53 µM)	relative viability (Sorafenib + Pictilisib; first compound 8 µM)	relative viability (Sorafenib + Pemetrexed; first compound 0.08 µM)	relative viability (Sorafenib + Pemetrexed; first compound 0.253 µM)	relative viability (Sorafenib + Pemetrexed; first compound 2.53 µM)	relative viability (Sorafenib + Pemetrexed; first compound 8 µM)	relative viability (Sorafenib + Olaparib; first compound 0.08 µM)	relative viability (Sorafenib + Olaparib; first compound 0.253 µM)	relative viability (Sorafenib + Olaparib; first compound 2.53 µM)	relative viability (Sorafenib + Olaparib; first compound 8 µM)
HCC-44	0.814	0.805	0.865	0.699	0.96	0.771	0.858	0.834	0.628	0.693	0.673	0.549	0.652	0.607	0.599	0.61	0.936	0.876	0.92	0.953
HCC-78	0.517	0.427	–	0.585	0.468	0.471	0.529	0.476	0.254	0.229	0.268	0.217	0.936	0.879	0.847	0.888	0.891	0.953	0.909	0.819
HCC-366	1.05	0.98	0.991	0.831	0.393	0.424	0.323	0.353	0.208	0.118	0.138	0.151	0.158	0.124	0.127	0.174	0.354	0.319	0.287	0.268
IA-LM	0.704	0.363	0.458	0.408	–	–	–	–	0.451	0.37	0.311	0.212	–	–	–	–	0.65	0.601	0.51	0.43
LK-2	–	–	–	–	0.703	0.588	0.528	0.542	0.588	–	0.722	0.374	0.331	0.254	0.303	0.194	0.674	0.734	0.575	0.346
NCI-H358	–	–	–	–	0.137	0.127	0.182	0.128	0.364	0.393	0.469	0.184	0.168	0.146	0.145	0.144	0.551	0.491	0.368	0.375
NCI-H522	–	–	–	–	0.988	0.92	1.2	0.591	–	–	–	–	1.02	0.782	0.863	0.883	0.68	0.634	0.775	0.541
NCI-H596	1.02	–	1.19	1.14	–	–	–	–	0.354	0.436	0.374	0.372	0.495	0.47	0.563	0.52	0.773	0.73	0.751	0.79
NCI-H727	0.775	0.618	0.699	0.516	0.688	0.616	0.681	0.569	0.332	0.337	0.257	0.311	–	–	–	–	0.826	0.666	0.693	0.659
NCI-H1395	–	–	–	–	0.696	–	0.613	0.644	0.603	0.636	0.642	0.39	1	–	0.917	–	0.517	–	0.515	0.394
NCI-H1563	–	0.905	0.976	0.508	–	–	–	–	0.653	0.523	0.614	0.665	0.969	0.654	0.775	0.659	–	–	–	–
NCI-H1703	0.193	0.207	0.183	0.151	–	–	–	–	0.243	0.21	0.197	0.177	–	–	–	–	0.317	0.27	0.194	0.192
NCI-H1793	–	–	–	–	0.354	0.376	0.465	0.411	0.313	0.333	0.256	0.195	1.24	–	1.11	0.529	1.05	0.836	0.84	0.661
NCI-H1944	–	–	–	–	0.339	0.346	0.371	0.306	0.368	0.332	0.365	0.274	0.697	0.557	0.735	0.438	0.391	0.379	0.382	0.35
NCI-H2170	–	–	–	–	0.379	0.327	0.401	0.325	0.323	0.348	0.369	0.255	0.258	0.278	0.27	0.208	0.63	0.577	0.556	0.365
NCI-H2342	–	–	–	–	0.53	0.523	0.556	0.533	–	–	–	–	–	0.729	0.78	0.532	0.433	0.487	0.351	0.388
SK-MES-1	–	–	–	–	0.301	0.292	0.292	0.289	0.451	0.439	0.447	0.377	0.999	0.84	0.881	–	0.664	0.551	0.648	0.258
SW 900	–	–	–	–	0.566	0.568	0.498	0.63	–	–	–	–	0.462	0.479	0.517	0.471	0.764	0.88	0.909	0.34
